Assays:
[1] = molecular target: cloned human P2Y1 receptors (Homo sapiens (Human), UniProt P47900); test: Binding Assay A - membrane binding assay, [33P] 2MeS-ADP (WGA FlashPlate); conditions: values marked * in Table 1; 0.5 nM [33P] 2MeS-ADP, Cheng-Prusoff; read-out: P2Y1 Ki (nM) using binding assay A
Description: A membrane binding assay was used to identify inhibitors of [^33P] […] The cDNA clone for human P2Y1 was obtained from Incyte Pharmaceuticals and its sequence confirmed by established techniques (for a compendium of techniques used see Ausubel, F. et al., Current Protocols in Molecular Biology, John Wiley and Sons, NY, NY (1995)). The essential coding sequences were subcloned into pCDNA 3.1 (Invitrogen) to produce a P2Y1 expression construct. This construct was then transfected into the human embryonic kidney cell line HEK-293 and stable transfectants selected in GENETICIN® (G418 sulfate; Life Technologies). […] Membranes were prepared by growing HEK293 #49 in 150 mm dishes in DMEM/10% FBS in the presence of 1 mg/ml G418 until cells were 80-90% confluent. Plates were then washed with cold (4° C.) D-PBS twice and cells harvested by scraping into 10 mL D-PBS. Cells were pelleted by centrifugation (1,000 g, 10 min, 4° C.) and the resulting pellet resuspended in Lysis Buffer (10 mM Tris (7.4), 5 mM MgCl2 containing Complete protease inhibitor cocktail (Roche Cat #1873580) as recommended by the manufacturer). The suspension was then homogenized in a Dounce homogenizer (10-15 strokes; B pestle, on ice) and the homogenate spun at 1,000 g, 4° C., 5 min to pellet large debris. The supernatant was centrifuged at 150,000 g, 4° C., for 1 hour and the resulting membrane pellet resuspended in 0.5-1 mL of Buffer B (15 mM HEPES (7.4), 145 mM NaCl, 0.1 mM MgCl2, 5 mM EDTA, 5 mM KCl) and stored at −70° C. until used.
Binding reactions were performed in WGA FLASHPLATE®s (PerkinElmer Life Sciences, Cat # SMP105A) in a volume of 200 μL containing ˜45 fmol of P2Y1 receptor (5 μg of total protein), 0.5 nM [^33P] […] Reactions were allowed to proceed to completion at room temperature for 1 hour and then the aqueous solution aspirated. Plates were sealed and the residual [^33P] bound to the plate determined by scintillation counting.

[2] = system: human platelet rich plasma (PRP); test: ADP induced platelet aggregation assay; conditions: Homo sapiens, Platelet, 5 min, read-out: PA IC50 (μM) @ 10 μM ADP, human PRP, 10 μM ADP, AUC at 5 minute
Description: The ability of P2Y1 antagonists covered in the present invention to inhibit platelet aggregation induced by 10 μM ADP was tested using human platelet rich plasma (PRP) as described in Platelet Protocols: Research and Clinical Laboratory Procedures (White, M. M. et al., Academic Press (1999)). Human blood was collected in 30 μM (final concentration in blood) argatroban (GSK) as the anticoagulant at a ratio of 1 mL per 9 mL of blood. The PRP was isolated by centrifugation at 170 g for 12 minutes. The platelet poor plasma (PPP) was used as the blank for optical aggregometry. Compounds of the present invention in DMSO solution was preincubated with 250 μL PRP at 37° C. for 1 minute with stirring speed of 1000 rpm. Aggregation was initiated by addition of 2.5 μL of 1 mM ADP (Chrono-log, Havertown, Pa.) for a final ADP concentration of 10 μM. Platelet aggregation was monitored using Optical Aggregometer (Chrono-log, Havertown, Pa.) and the area under the curve (AUC) at 5 minute was measured. IC50 was calculated using vehicle control as 0% inhibition.

Sequence of cloned human P2Y1 receptors (P47900 whole entry): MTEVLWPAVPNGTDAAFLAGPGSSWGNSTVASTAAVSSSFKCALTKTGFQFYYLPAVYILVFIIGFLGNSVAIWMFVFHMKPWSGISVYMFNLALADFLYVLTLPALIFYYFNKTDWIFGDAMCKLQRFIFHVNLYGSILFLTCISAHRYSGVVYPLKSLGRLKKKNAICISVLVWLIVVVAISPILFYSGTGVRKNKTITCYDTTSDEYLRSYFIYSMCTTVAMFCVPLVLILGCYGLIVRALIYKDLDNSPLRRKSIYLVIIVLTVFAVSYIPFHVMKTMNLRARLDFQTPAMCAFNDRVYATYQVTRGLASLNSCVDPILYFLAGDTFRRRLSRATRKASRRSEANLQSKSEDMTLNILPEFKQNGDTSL

Compound	Ki [1] [nM]	IC50 [2] [µM]
CC1(C)CN(c2ccccc2NC(=O)Nc2nc3ccc(Cl)nc3s2)c2c(O)ccc(-c3nc4ccc(F)cc4s3)c21 [Example 176, 1-(5-Chlorothiazolo[5,4-b]pyridin-2-yl)-3-(2-(4-(6-fluorobenzo[d]thiazol-2-yl)-7-hydroxy-3,3-dimethylindolin-1-yl)phenyl)urea]	13	0.35
CC1(C)CN(c2ccccc2NC(=O)Nc2ccc(OC(F)(F)F)cc2)c2c(O)ccc(-c3nccs3)c21 [Example 124, 1-(2-(7-Hydroxy-3,3-dimethyl-4-(thiazol-2-yl)indolin-1-yl)phenyl)-3-(4-(trifluoromethoxy)phenyl)urea]	3.4	0.82
CC1(C)CN(c2ccccc2NC(=O)Nc2nc3ccc(F)cc3s2)c2c(O)ccc(-c3nc4ccc(F)cc4s3)c21 [Example 175, 1-(6-Fluorobenzo[d]thiazol-2-yl)-3-(2-(4-(6-fluorobenzo[d]thiazol-2-yl)-7-hydroxy-3,3-dimethylindolin-1-yl)phenyl)urea]	17.6	0.35
CC(C)c1nc(-c2ccc(O)c3c2C(C)(C)CN3c2ccccc2NC(=O)Nc2ccc(OC(F)(F)F)cc2)cs1 [Example 127, 1-(2-(7-Hydroxy-4-(2-isopropylthiazol-4-yl)-3,3-dimethylindolin-1-yl)phenyl)-3-(4-(trifluoromethoxy)phenyl)urea]	4.7	0.28
CC1(C)CN(c2ccccc2NC(=O)Nc2nc3ccc(Cl)nc3s2)c2c(O)ccc(-c3nc4cc(F)ccc4s3)c21 [Example 173, 1-(5-Chlorothiazolo[5,4-b]pyridin-2-yl)-3-(2-(4-(5-fluorobenzo[d]thiazol-2-yl)-7-hydroxy-3,3-dimethylindolin-1-yl)phenyl)urea]	20.7	0.5
CC1(C)CN(c2ccccc2NC(=O)Nc2ccc(OC(F)(F)F)cc2)c2c(O)ccc(-c3ccc(F)cn3)c21 [Example 123, 1-(2-(4-(5-Fluoropyridin-2-yl)-7-hydroxy-3,3-dimethylindolin-1-yl)phenyl)-3-(4-(trifluoromethoxy)phenyl)urea]	4.5	0.43
CCC1(CC)CN(c2ccccc2NC(=O)Nc2nc3ccc(F)cc3s2)c2c(O)ccc(Cl)c21 [Example 49, 1-(2-(4-Chloro-3,3-diethyl-7-hydroxyindolin-1-yl)phenyl)-3-(6-fluorobenzo[d]thiazol-2-yl)urea]	6.6	0.18
CC1(C)CN(c2ccccc2NC(=O)Nc2ccc(OC(F)(F)F)cc2)c2c(O)ccc(-c3nc4ccc(F)cc4s3)c21 [Example 174, 1-(2-(4-(6-Fluorobenzo[d]thiazol-2-yl)-7-hydroxy-3,3-dimethylindolin-1-yl)phenyl)-3-(4-(trifluoromethoxy)phenyl)urea]	6.3	0.32
CC1(C)CN(c2ccccc2NC(=O)Nc2nc3ccc(F)cc3s2)c2c(O)ccc(-c3nc4cc(F)ccc4s3)c21 [Example 171, 1-(6-Fluorobenzo[d]thiazol-2-yl)-3-(2-(4-(5-fluorobenzo[d]thiazol-2-yl)-7-hydroxy-3,3-dimethylindolin-1-yl)phenyl)urea]	8.7	0.36
CC1(C)CN(c2ccccc2NC(=O)Nc2ccc(OC(F)(F)F)cc2)c2c(O)ccc(-c3ccc(C(F)(F)F)cn3)c21 [Example 125, 1-(2-(7-Hydroxy-3,3-dimethyl-4-(5-(trifluoromethyl)pyridin-2-yl)indolin-1-yl)phenyl)-3-(4-(trifluoromethoxy)phenyl)urea]	4.8	0.15
CCC1(CC)CN(c2ccccc2NC(=O)Nc2nc(C(C)C)ns2)c2c(O)ccc(Cl)c21 [Example 48, 1-(2-(4-Chloro-3,3-diethyl-7-hydroxyindolin-1-yl)phenyl)-3-(3-isopropyl-1,2,4-thiadiazol-5-yl)urea]	7	0.48
CC1(C)CN(c2ccccc2NC(=O)Nc2csc(C(F)(F)F)n2)c2c(O)cc(F)c(-c3ccc(C(F)(F)F)cc3)c21 [Example 217, 1-(2-(5-Fluoro-7-hydroxy-3,3-dimethyl-4-(4-(trifluoromethyl)phenyl)indolin-1-yl)phenyl)-3-(2-(trifluoromethyl)thiazol-4-yl)urea]	8	0.16
CC(C)c1cnc(-c2ccc(O)c3c2C(C)(C)CN3c2ccccc2NC(=O)Nc2ccc(OC(F)(F)F)cc2)nc1 [Example 126, 1-(2-(7-Hydroxy-4-(5-isopropylpyrimidin-2-yl)-3,3-dimethylindolin-1-yl)phenyl)-3-(4-(trifluoromethoxy)phenyl)urea]	4.1	0.3
CCC1(CC)CN(c2ccccc2NC(=O)Nc2ccc(C3CCCN3CC(C)C)cc2)c2c1ccc(F)c2O (stereo not drawn) [Example 36, 1-(2-(3,3-Diethyl-6-fluoro-7-hydroxyindolin-1-yl)phenyl)-3-(4-(1-isobutylpyrrolidin-2-yl)phenyl)urea]	5.7	0.21
CC1(C)CN(c2ccccc2NC(=O)Nc2csc(C(F)(F)F)n2)c2c(O)cc(F)c(-c3ccc(Cl)cc3)c21 [Example 218, 1-(2-(4-(4-Chlorophenyl)-5-fluoro-7-hydroxy-3,3-dimethylindolin-1-yl)phenyl)-3-(2-(trifluoromethyl)thiazol-4-yl)urea]	9.3	0.37

Reference: patent publication US9540323B2 (BRISTOL-MYERS SQUIBB COMPANY, priority 2012, dated 2017)
